Active and inactive are the calls of the source.
Tests used:
Mu-type opioid receptor = Mu-type opioid receptor (Homo sapiens, UniProt P35372); test: HTS Image-Based Screen for Agonists of the MOR Receptor. [Related pubchem assays (depositor defined):AID1777, AID1785, AID1786, AID2133]; assay type: functional;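 note: imaging of beta-arrestin GFP recruitment into spots after receptor activation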
[1] = target: T1, Delta-type opioid receptor (Homo sapiens, UniProt P41143); test: HTS Image-Based Screen for Antagonists of the DOR Receptor. [Related pubchem assays (depositor defined):AID1777, AID1785, AID1786, AID2133]; assay type: functional
Beta-galactosidase [2] = target: T2, Beta-galactosidase (Escherichia coli, UniProt Q8VNN2); assay type: functional
[3] = target: T1, Delta-type opioid receptor; test: HTS Image-Based Screen for Agonists of the DOR Receptor. [Related pubchem assays (depositor defined):AID1777, AID1786, AID2133]; assay type: functional
[4] = target: T3, Kappa-type opioid receptor (Homo sapiens, UniProt P41145); assay type: functional
[5] = target: T3, Kappa-type opioid receptor; assay type: functional; remark: listed apart in the source
[6] = target: T4, Intestinal-type alkaline phosphatase (Homo sapiens, UniProt P09923); test: activation of human intestinal alkaline phosphatase – biochemical, luminescent, uHTS hits, set 2, dose response (AID 488817); assay type: functional;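 note: potency of activators that raise enzyme activity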
[7] = target: T4, Intestinal-type alkaline phosphatase; test: human intestinal alkaline phosphatase activators, dose response, biochemical, luminescence, uHTS hits (AID 463120); assay type: functional
[8] = target: Intestinal-type alkaline phosphatase (Mus musculus, UniProt P24822); test: PubChem AID 488874; assay type: functional
[9] = target: T5, Alkaline phosphatase, tissue-nonspecific isozyme (Homo sapiens, UniProt P05186); test: activation of tissue-nonspecific alkaline phosphatase – biochemical, TNAP isozyme, human IAP uHTS hits, selectivity assay for human IAP activator project, dose response (AID 488886); assay type: functional;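 note: potency of compounds raising TNAP activity as a selectivity check on IAP activators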
T5 sequence (P05186 whole entry): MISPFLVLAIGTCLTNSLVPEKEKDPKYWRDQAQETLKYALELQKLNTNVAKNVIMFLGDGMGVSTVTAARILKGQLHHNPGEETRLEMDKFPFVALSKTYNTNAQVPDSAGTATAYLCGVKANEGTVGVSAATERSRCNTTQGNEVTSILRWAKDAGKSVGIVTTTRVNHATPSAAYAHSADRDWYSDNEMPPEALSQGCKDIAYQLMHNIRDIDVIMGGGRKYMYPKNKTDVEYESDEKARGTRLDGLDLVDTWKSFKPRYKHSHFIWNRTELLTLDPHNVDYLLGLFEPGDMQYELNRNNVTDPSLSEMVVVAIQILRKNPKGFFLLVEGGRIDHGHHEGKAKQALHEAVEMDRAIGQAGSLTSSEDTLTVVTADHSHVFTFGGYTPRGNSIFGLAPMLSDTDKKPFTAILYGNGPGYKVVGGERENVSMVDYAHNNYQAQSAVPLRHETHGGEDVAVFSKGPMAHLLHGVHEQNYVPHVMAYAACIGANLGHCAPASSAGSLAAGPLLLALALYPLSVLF

[10] = target: T6, Heat shock factor protein 1 (Mus musculus, UniProt P38532); test: decrease of HSF1-responsive luciferase luminescence – cell-based, NIH3T3, dose retest, confirmation (AID 2382); assay type: functional;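 note: NIH3T3 fibroblasts with HSF1-driven luciferase reporter stressed by proteasome inhibitor MG132; luminescence from HSF1-driven luciferase expression after 8 hours of MG132 stress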
T6 sequence (P38532 whole entry): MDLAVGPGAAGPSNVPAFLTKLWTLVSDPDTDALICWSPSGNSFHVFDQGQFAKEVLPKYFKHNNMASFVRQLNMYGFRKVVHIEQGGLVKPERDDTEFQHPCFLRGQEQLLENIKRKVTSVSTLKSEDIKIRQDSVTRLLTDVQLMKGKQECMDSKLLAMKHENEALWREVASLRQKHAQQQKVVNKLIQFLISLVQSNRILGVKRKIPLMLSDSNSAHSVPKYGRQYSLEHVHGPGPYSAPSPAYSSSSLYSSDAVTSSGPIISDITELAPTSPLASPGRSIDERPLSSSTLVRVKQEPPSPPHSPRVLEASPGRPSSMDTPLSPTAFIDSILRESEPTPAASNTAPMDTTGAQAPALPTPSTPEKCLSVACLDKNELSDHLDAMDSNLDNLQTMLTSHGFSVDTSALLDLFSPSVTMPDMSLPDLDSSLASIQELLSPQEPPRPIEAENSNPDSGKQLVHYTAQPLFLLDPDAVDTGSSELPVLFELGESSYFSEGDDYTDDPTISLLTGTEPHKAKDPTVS

[11] = NIH-3T3 fibroblast cytotoxicity, dose response, cytotoxicity control, cell-based, fluorescence, Alamar Blue, secondary assay (AID 2327); assay type: functional;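 note: NIH-3T3 mouse fibroblasts cultured with fluconazole at 8 µg/mL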
Streptococcus = test: GAS UMAA2166 growth inhibition – luminescence, BacTiterGlo, counter-screen for streptokinase expression inhibitor project, dose response (AID 1915); assay type: functional, organism-based;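 note: potency for reduction of bacterial viability or growth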
Vero = test: cells; assay type: functional; conditions: Chlorocebus sabaeus
[12] = fluconazole-exposed Candida albicans growth modulators – fluorescence, retest, confirmation (AID 2467); assay type: functional, cell-based
[13] = Trypanosoma cruzi growth suppression in host cells – NIH3T3 host cells, beta-gal luminescence, confirmation (AID 2044); assay type: functional, cell-based;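 note: intracellular parasites grown in NIH/3T3 mouse fibroblasts as host cells; luminescent beta-galactosidase reporter signal from transgenic T. cruzi replicating inside host cells; inhibitors lower the luminescence signal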
[14] = tested on: Streptococcus sp. 'group A'; test: Streptococcus pyogenes SK(-)GAS viability under kanamycin – luminescence, BacTiterGlo, confirmation, counter-screen for streptokinase expression inhibitor project, dose response (AID 1900); assay type: functional, organism-based
[15] = target: G-protein coupled receptor 55 (Homo sapiens, UniProt Q9Y2T6); test: inhibition of LPI-stimulated GPR55 beta-arrestin translocation – imaging, U2OS, beta-arrestin-GFP, LPI agonist, primary screen (AID 2013); assay type: functional;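 note: antagonist potency measured as reduced agonist-driven arrestin aggregation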
Beta-galactosidase [16] = target: T2, Beta-galactosidase; test: detection-enzyme interference by beta-gal modulators – biochemical, E. coli enzyme, set 3, artefact control for CCR6 antagonist project, dose response (AID 504712); assay type: functional
[17] = target: Photoreceptor-specific nuclear receptor (Homo sapiens, UniProt Q9Y5X4); assay type: functional, cell-based;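 note: CHO-S cells with Gal4-NCOR and VP16-NR2E3 two-hybrid luciferase reporter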
[18] = NIH3T3 cell viability loss – ATP luminescence, mouse fibroblasts, counter-screen, dose response (AID 2010); assay type: functional, cell-based;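 note: cells exposed to compound for about 90 hours before reading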
Tumor necrosis factor = Tumor necrosis factor (Homo sapiens, UniProt P01375); test: analog potency on TNFa NF-kB signaling – cell-based, revised, SAR follow-up (AID 2337); assay type: functional
HEK293 [19] = test: cells; conditions: Homo sapiens
[20] = target: ATP-dependent molecular chaperone HSP82 (Candida albicans (strain WO-1) (Yeast), UniProt C4YTQ8); test: steroid-induced GRE reporter decrease in yeast – S. cerevisiae, luminescence, Hsp90 inhibitor project, dose response (AID 2400); assay type: functional, cell-based;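 note: beta-galactosidase luminescence from glucocorticoid response element reporter as proxy for Hsp90 function; inhibitor potency where signal loss means Hsp90 inhibition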
[21] = target: Signal transducer and activator of transcription 1-alpha/beta (Homo sapiens, UniProt P42224); test: STAT3 blockade with qPCR and toxicity readouts – cell-based, STAT1 panel, cytotoxicity, late-stage follow-up, panel member STAT1 Inhibition (AID 2078)
HEK293 [22] = test: cells; assay type: functional, cell-based; conditions: Homo sapiens
HEK293 [23] = test: cells; assay type: functional, cell-based; conditions: Homo sapiens; remark: listed apart in the source
HEK293 [24] = test: inhibition of NOD1-driven NF-kB reporter – cell-based, luminescence, uHTS, primary screen (AID 1578); assay type: functional; conditions: Homo sapiens
[25] = target: T7, Serine/threonine-protein phosphatase (Candida dubliniensis (strain CD36 / CBS 7987 / NCPF 3949 / NRRLY-17841) (Yeast), UniProt B9W6M3); test: blockers of CaCl2-induced CDRE-lacZ signaling – S. cerevisiae, luminescence, secondary, dose response (AID 2388); assay type: functional, cell-based;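 note: yeast reporter cells carrying a calcineurin-responsive lacZ construct stimulated with calcium chloride; luminescent beta-galactosidase reporter signal in whole cells rather than isolated phosphatase activity; potency for inhibition where a drop in reporter signal means calcineurin blockade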
T7 sequence (B9W6M3 whole entry): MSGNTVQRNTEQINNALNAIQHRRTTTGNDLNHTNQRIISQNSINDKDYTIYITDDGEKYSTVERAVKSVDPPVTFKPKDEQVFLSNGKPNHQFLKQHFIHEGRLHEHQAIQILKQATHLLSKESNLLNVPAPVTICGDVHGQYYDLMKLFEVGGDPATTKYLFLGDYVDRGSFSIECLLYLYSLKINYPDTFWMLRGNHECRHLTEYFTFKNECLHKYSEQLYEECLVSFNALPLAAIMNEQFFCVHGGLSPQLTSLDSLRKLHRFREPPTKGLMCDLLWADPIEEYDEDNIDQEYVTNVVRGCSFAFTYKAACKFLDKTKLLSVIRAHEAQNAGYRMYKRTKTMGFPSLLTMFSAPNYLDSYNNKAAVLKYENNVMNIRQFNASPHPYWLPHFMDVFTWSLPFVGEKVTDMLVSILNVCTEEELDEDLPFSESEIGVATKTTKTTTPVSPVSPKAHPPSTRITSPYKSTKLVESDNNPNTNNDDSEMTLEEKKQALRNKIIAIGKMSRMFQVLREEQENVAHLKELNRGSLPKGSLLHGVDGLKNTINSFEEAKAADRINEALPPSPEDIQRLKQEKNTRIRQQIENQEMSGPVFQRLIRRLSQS

[26] = non-specific 3'UTR reporter inhibition in Clone20-Shn3RL – cell-based, Renilla luciferase, cherry-picked, counter-screen for Shn3 inhibitor project, dose response (AID 624133); assay type: functional
[27] = loss of viability in HepG2 cells – cell-based, CellTiter-Glo, cherry-picked, cytotoxicity control for Shn3 inhibitor project, dose response (AID 624134); assay type: functional
HEK293 [28] = test: NOD2 signaling inhibitors in MDP-stimulated cells, cell-based, uHTS, luminescence (AID 2001); assay type: functional; conditions: Homo sapiens
[29] = target: Signal transducer and activator of transcription 3 (Homo sapiens, UniProt P40763); test: STAT3 blockade with qPCR and toxicity readouts – cell-based, STAT1 panel, cytotoxicity, late-stage follow-up, panel member STAT3 Inhibition (AID 2078)
[30] = MIN6 cell viability loss – mouse insulinoma, cytotoxicity control, dose response (AID 2122); assay type: functional;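 note: confirmatory high-throughput counterscreen run to flag cytotoxic compounds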
[31] = decrease of insulin promoter-GFP reporter – imaging, high-content screening, mouse beta cells (AID 1628); assay type: functional; conditions: MIN6
[32] = reduction of Shn3 3'UTR-driven luciferase in osteoblasts – cell-based, Clone20 osteoblasts, firefly luciferase, cherry-picked, dose response (AID 624132); assay type: functional;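 note: firefly luciferase luminescence from reporter carrying the Shn3 3'UTR in osteoblasts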

T3 sequence (P41145 whole entry): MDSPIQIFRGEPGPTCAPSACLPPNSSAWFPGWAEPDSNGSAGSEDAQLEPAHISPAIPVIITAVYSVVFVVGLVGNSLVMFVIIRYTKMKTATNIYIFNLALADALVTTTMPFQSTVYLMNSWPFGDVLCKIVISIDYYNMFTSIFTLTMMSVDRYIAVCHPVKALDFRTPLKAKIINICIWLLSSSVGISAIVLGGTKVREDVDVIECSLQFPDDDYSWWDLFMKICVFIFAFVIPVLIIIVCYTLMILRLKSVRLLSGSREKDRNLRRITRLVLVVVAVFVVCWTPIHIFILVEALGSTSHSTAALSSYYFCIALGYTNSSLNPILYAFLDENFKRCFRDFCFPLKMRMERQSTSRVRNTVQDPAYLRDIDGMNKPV
T4 sequence (P09923 whole entry): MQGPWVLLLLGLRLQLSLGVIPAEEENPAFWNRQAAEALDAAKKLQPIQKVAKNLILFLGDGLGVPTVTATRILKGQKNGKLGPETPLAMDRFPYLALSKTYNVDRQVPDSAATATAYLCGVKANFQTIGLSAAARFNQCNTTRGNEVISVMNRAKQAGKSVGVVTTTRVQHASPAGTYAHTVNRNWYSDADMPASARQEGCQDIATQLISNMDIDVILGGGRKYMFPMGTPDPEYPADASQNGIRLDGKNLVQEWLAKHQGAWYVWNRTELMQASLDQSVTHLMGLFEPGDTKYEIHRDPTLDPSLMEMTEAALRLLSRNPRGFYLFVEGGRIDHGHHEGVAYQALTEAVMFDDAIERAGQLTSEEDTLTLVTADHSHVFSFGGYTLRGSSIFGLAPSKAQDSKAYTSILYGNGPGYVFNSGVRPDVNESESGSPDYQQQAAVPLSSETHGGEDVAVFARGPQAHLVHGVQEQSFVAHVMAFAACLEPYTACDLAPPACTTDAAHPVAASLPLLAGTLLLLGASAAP
T2 sequence (Q8VNN2 whole entry): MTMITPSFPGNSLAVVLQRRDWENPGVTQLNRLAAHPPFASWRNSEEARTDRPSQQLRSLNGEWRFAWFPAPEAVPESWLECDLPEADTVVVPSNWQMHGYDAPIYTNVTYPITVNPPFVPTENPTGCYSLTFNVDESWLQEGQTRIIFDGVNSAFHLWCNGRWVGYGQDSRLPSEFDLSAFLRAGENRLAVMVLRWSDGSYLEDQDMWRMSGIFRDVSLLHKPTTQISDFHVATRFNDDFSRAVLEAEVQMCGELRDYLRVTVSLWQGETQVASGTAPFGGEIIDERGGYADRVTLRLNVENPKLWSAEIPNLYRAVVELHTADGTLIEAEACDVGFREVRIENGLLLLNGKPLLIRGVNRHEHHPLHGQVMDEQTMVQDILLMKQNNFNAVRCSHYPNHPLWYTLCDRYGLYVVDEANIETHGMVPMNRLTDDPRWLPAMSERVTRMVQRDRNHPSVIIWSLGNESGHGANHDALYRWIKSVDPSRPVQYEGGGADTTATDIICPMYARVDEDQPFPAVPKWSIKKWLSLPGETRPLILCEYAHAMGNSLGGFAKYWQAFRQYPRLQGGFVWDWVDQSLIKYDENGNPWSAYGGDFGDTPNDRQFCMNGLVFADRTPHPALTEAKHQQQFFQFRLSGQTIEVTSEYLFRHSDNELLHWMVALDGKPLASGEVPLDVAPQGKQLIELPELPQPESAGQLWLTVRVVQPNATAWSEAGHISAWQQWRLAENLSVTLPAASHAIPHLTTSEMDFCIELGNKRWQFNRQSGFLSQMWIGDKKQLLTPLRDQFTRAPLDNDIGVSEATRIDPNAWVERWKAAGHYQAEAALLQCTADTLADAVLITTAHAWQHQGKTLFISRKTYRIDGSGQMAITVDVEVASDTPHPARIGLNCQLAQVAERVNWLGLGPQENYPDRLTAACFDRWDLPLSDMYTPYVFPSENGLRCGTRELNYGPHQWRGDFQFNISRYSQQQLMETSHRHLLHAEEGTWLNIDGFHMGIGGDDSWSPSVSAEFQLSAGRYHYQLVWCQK
T1 sequence (P41143 whole entry): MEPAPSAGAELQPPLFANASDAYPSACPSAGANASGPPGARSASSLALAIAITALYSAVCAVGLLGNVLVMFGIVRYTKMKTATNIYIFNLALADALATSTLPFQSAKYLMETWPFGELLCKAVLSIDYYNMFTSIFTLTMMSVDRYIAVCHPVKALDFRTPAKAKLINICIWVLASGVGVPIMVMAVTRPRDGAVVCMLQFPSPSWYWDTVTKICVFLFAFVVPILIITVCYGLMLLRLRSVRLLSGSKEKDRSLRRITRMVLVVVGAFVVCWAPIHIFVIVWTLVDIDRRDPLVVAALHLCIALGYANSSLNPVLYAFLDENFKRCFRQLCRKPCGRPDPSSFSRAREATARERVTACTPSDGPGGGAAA
Chain of Mu-type opioid receptor (P35372 whole entry): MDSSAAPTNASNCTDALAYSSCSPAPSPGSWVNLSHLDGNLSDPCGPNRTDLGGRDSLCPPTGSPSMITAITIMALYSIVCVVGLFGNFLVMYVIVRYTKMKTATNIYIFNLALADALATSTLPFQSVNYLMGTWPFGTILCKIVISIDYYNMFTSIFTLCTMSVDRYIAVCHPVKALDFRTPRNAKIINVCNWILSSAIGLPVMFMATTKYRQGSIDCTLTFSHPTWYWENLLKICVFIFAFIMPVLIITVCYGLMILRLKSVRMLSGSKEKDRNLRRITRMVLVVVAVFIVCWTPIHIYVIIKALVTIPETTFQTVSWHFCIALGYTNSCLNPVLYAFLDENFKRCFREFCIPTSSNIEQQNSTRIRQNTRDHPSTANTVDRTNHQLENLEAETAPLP
Chain of Intestinal-type alkaline phosphatase (Mus musculus, UniProt P24822) (P24822 whole entry): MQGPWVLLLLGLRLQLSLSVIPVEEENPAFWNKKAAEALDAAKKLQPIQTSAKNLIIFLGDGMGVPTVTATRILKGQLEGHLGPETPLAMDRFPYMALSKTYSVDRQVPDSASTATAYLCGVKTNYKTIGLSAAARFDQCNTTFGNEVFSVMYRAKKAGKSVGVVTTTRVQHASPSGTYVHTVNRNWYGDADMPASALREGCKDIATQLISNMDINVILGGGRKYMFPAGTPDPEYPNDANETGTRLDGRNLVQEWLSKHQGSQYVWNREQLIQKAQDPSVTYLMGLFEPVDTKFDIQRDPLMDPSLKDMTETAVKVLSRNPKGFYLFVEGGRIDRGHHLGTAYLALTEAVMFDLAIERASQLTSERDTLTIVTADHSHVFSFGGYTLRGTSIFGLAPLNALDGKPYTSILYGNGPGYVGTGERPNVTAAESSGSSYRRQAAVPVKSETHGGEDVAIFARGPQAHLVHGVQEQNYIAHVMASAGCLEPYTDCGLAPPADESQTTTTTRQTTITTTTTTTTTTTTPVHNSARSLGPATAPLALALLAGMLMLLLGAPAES
Chain of G-protein coupled receptor 55 (Q9Y2T6 whole entry): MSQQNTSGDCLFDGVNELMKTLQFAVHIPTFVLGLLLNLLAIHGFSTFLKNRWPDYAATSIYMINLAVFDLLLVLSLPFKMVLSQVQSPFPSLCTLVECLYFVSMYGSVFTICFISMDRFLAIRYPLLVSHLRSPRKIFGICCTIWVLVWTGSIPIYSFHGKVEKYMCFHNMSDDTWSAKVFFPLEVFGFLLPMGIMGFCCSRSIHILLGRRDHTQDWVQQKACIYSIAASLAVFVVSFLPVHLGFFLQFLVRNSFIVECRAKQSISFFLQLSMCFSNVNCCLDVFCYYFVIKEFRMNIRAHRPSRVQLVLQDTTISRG
Chain of Signal transducer and activator of transcription 1-alpha/beta (P42224 whole entry): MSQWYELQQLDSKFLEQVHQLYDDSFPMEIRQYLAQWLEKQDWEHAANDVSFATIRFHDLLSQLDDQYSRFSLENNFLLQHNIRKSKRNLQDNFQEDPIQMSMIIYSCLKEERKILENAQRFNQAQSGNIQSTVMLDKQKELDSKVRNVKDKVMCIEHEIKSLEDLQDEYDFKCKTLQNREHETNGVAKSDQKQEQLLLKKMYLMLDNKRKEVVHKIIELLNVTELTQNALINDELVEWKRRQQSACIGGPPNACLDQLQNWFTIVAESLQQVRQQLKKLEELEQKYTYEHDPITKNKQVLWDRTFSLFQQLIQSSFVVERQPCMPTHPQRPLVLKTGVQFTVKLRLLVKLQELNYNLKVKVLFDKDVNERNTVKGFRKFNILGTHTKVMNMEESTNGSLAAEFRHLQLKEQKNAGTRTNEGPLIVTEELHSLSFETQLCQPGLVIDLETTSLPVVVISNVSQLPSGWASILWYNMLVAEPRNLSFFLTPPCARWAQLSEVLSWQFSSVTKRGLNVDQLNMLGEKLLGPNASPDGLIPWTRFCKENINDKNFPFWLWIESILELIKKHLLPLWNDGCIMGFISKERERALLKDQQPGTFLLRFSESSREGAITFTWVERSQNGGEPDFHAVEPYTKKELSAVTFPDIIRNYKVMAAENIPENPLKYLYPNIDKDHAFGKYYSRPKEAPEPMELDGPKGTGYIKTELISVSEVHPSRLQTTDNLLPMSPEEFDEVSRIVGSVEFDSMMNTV
Chain of Photoreceptor-specific nuclear receptor (Q9Y5X4 whole entry, the tested form may be a part): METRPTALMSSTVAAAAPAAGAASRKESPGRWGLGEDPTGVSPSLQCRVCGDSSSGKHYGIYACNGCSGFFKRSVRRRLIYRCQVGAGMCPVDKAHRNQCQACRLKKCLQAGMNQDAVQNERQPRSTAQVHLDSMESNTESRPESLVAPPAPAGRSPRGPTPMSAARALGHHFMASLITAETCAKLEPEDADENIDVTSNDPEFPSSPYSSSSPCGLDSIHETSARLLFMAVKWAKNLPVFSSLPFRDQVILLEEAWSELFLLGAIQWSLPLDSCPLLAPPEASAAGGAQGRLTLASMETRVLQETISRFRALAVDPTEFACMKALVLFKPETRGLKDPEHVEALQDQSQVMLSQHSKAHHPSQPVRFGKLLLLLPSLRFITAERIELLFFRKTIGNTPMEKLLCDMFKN
Chain of Tumor necrosis factor (P01375 whole entry): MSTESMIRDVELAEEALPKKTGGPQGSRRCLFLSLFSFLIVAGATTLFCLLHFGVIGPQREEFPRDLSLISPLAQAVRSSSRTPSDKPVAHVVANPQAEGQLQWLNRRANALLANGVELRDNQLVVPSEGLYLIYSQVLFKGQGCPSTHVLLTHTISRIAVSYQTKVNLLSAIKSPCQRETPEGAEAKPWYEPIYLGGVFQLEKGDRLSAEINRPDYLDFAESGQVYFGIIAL

CCN(CC)C(CNC(=O)c1cc(=O)[nH]c2ccccc12)c1ccccc1Cl (stereo not drawn)
inactive: EC50 (Mu-type opioid receptor) > 32 µM | IC50 [1] > 32 µM | EC50 (Beta-galactosidase [2]) > 31.5 µM | EC50 [3] > 32 µM
14.6 µM: IC50 [5]
active: IC50 [4] 14.9 µM

CCn1c(C)nc2cc(C(=O)NNC(=S)Nc3ccccc3)ccc21
active: EC50 [6] 15.6 µM | EC50 [7] 10.6 µM | IC50 [8] 50.3 µM | EC50 [9] 15.4 µM | EC50 [10] 0.192 µM

C[C@@H](NC(=O)c1[nH]cnc1C(=O)Nc1ccon1)c1ccccc1
active: EC50 [6] 16.4 µM | EC50 [7] 12 µM | IC50 [8] 39.3 µM | EC50 [9] 25.9 µM

Cc1cccc(Cc2cnc(N3C(=N)SC(C)C3=O)s2)c1 (stereo not drawn)
inconclusive: EC50 [11] > 160 µM
active: EC50 (Streptococcus) 7.82 µM | CC50 (Vero) > 25 µM | EC50 [12] 1.91 µM | EC50 [13] 2.41 µM | EC50 [14] 0.179 µM | IC50 [15] 0.847 µM | IC50 [4] 5.68 µM | IC50 [17] 1.87 µM
> 32 µM: IC50 [5]
inactive: EC50 (Mu-type opioid receptor) > 32 µM | IC50 [1] > 32 µM | EC50 (Beta-galactosidase [2]) > 31.5 µM | IC50 (Beta-galactosidase [16]) > 66.6 µM | EC50 [3] > 32 µM
> 60 µM (not active): EC50 [18]

O=C(Nc1ccc(F)cc1)c1ccc(CN2CCc3ccccc32)cc1
inactive: IC50 (Tumor necrosis factor) > 20 µM | IC50 (HEK293 [19]) > 20 µM

c1ccc(CC2CCN(c3ncnc4sccc34)CC2)cc1
inconclusive: EC50 [11] > 160 µM
active: EC50 [20] 19.5 µM | AC50 [26] 5.88 µM | EC50 [12] 0.574 µM | AC50 [27] 1.84 µM | IC50 [29] 1.85 µM | IC50 [30] 0.505 µM | IC50 [31] 0.756 µM | AC50 [32] 0.362 µM
inactive: IC50 [21] > 55.7 µM | IC50 (HEK293 [22]) > 20 µM | IC50 (HEK293 [23]) > 20 µM | EC50 (HEK293 [24]) > 20 µM | EC50 [25] > 180 µM | IC50 (HEK293 [28]) > 20 µM
